Results taken from US20230144436A1, “MUSCLE TARGETING COMPLEXES AND USES THEREOF FOR TREATING MYOTONIC DYSTROPHY” (Dyne Therapeutics, Inc., priority 2020, published 2023).

Each substance was assayed on DMPK (assay: Dose-responsive DMPK reduction in DM1 C15 myotubes (EC-50)). Settings: DM1 C15 differentiated myotubes, transfection with Lipofectamine MessengerMax, 72 hours, 0.046-100 nM.
Assay type: cell-based
Method: Eighteen oligonucleotides from Example 7 were selected to be evaluated for their ability to reduce DMPK expression in a dose-responsive manner. DM1 C15 myoblasts were prepared as in Example 7 to yield differentiated myotubes in 96-well microplates. After seven days of differentiation, cells were transfected with individual oligonucleotides using Lipofectamine MessengerMax. Each oligonucleotide was tested in triplicate at concentrations of 0.046 nM, 0.137 nM, 0.412 nM, 1.235 nM, 3.704 nM, 11.11 nM, 33.33 nM, and 100 nM by 3-fold serial dilutions using 0.3 μL of Lipofectamine MessengerMax per well.
Following addition of oligonucleotide, cells were incubated for 72 hours prior to harvesting for total RNA. cDNA was synthesized from the total RNA extracts and qPCR was performed to determine expression levels of DMPK using a commercially available Taqman probeset in technical quadruplicate. All qPCR data were analyzed using a traditional ΔΔCT method and were normalized to a plate-based negative control that comprised of cells treated with vehicle control (0.3 μL/well Lipofectamine MessengerMax without any oligonucleotide). Data for each oligonucleotide to was fit to sigmoidal curve in order to determine an effective concentration of each oligonucleotide that provided a half-maximal response (EC-50).

Substance | EC50
288 (CAGGGACAGCCGCUGGAACU; chemistry not given here) [compound 288] | 6.04 nM
293 (GAAUGUCCGACAGUGUCUCC; chemistry not given here) [compound 293] | 0.07 nM
294 (CGUUCCAUCUGCCCGCAGCU; chemistry not given here) [compound 294] | 0.19 nM
299 (GCAGGAUGUUGUCGGGUUUG; chemistry not given here) [compound 299] | 0.168 nM
301 (UGUUGUCGGGUUUGAUGUCC; chemistry not given here) [compound 301] | 0.21 nM
310 (GCGUAGAAGGGCGUCUGCCC; chemistry not given here) [compound 310] | 24.6 nM
313 (GGACGAUCUUGCCAUAGGUC; chemistry not given here) [compound 313] | 3.59 nM
316 (AGCAGGAUGUUGUCGGGUUU; chemistry not given here) [compound 316] | 0.227 nM
320 (CCCAGCGCCCACCAGUCACA; chemistry not given here) [compound 320] | 5.45 nM
346 (GACAGAACAACGGCGAACAG; chemistry not given here) [compound 346] | 0.08 nM
362 (GCUGUCCCGGAGACCAUCCC; chemistry not given here) [compound 362] | 3.27 nM

Same assay, conditions: DM1 C15 differentiated myotubes, transfection, 72 hours, 100 nM

Substance | Percent DMPK reduction at 100 nM
288 (CAGGGACAGCCGCUGGAACU; chemistry not given here) [compound 288] | 90.59%
293 (GAAUGUCCGACAGUGUCUCC; chemistry not given here) [compound 293] | 97.23%
294 (CGUUCCAUCUGCCCGCAGCU; chemistry not given here) [compound 294] | 89.97%
299 (GCAGGAUGUUGUCGGGUUUG; chemistry not given here) [compound 299] | 89.77%
301 (UGUUGUCGGGUUUGAUGUCC; chemistry not given here) [compound 301] | 93.95%
310 (GCGUAGAAGGGCGUCUGCCC; chemistry not given here) [compound 310] | 95.13%
313 (GGACGAUCUUGCCAUAGGUC; chemistry not given here) [compound 313] | 92.18%
316 (AGCAGGAUGUUGUCGGGUUU; chemistry not given here) [compound 316] | 85.81%
320 (CCCAGCGCCCACCAGUCACA; chemistry not given here) [compound 320] | 63.69%
346 (GACAGAACAACGGCGAACAG; chemistry not given here) [compound 346] | 94.32%
362 (GCUGUCCCGGAGACCAUCCC; chemistry not given here) [compound 362] | 93.07%

What follows are substances tested on DMPK (assay: DMPK knockdown by transfected antisense oligonucleotides in DM1 C15 myotubes at 0.5 nM and 50 nM). Settings: 0.5 nM oligonucleotide, 72 hours, qPCR, relative to vehicle control.
Assay type: cell-based
Outline: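 Seven-day-differentiated DM1 C15 myotubes transfected (Lipofectamine MessengerMax) with each oligonucleotide at 0.5 nM or 50 nM final, biological triplicates. After 72 h, DMPK mRNA quantified by qPCR, expressed relative to vehicle-only transfection set to 1.00.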

Substance | Percent DMPK Reduction
288 (CAGGGACAGCCGCUGGAACU; chemistry not given here) [compound 288] | 32.09%
293 (GAAUGUCCGACAGUGUCUCC; chemistry not given here) [compound 293] | 30.09%
294 (CGUUCCAUCUGCCCGCAGCU; chemistry not given here) [compound 294] | 33.74%
299 (GCAGGAUGUUGUCGGGUUUG; chemistry not given here) [compound 299] | 44.39%
301 (UGUUGUCGGGUUUGAUGUCC; chemistry not given here) [compound 301] | 21.00%
310 (GCGUAGAAGGGCGUCUGCCC; chemistry not given here) [compound 310] | 39.53%
313 (GGACGAUCUUGCCAUAGGUC; chemistry not given here) [compound 313] | 29.82%
316 (AGCAGGAUGUUGUCGGGUUU; chemistry not given here) [compound 316] | 41.05%
320 (CCCAGCGCCCACCAGUCACA; chemistry not given here) [compound 320] | 37.93%
346 (GACAGAACAACGGCGAACAG; chemistry not given here) [compound 346] | 21.41%
362 (GCUGUCCCGGAGACCAUCCC; chemistry not given here) [compound 362] | 22.57%

Same assay, conditions: 0.5 nM oligonucleotide, 72 hours, qPCR, relative to vehicle control = 1.00

Substance | Normalized DMPK Remaining
288 (CAGGGACAGCCGCUGGAACU; chemistry not given here) [compound 288] | 0.68
293 (GAAUGUCCGACAGUGUCUCC; chemistry not given here) [compound 293] | 0.70
294 (CGUUCCAUCUGCCCGCAGCU; chemistry not given here) [compound 294] | 0.66
299 (GCAGGAUGUUGUCGGGUUUG; chemistry not given here) [compound 299] | 0.56
301 (UGUUGUCGGGUUUGAUGUCC; chemistry not given here) [compound 301] | 0.79
310 (GCGUAGAAGGGCGUCUGCCC; chemistry not given here) [compound 310] | 0.60
313 (GGACGAUCUUGCCAUAGGUC; chemistry not given here) [compound 313] | 0.70
316 (AGCAGGAUGUUGUCGGGUUU; chemistry not given here) [compound 316] | 0.59
320 (CCCAGCGCCCACCAGUCACA; chemistry not given here) [compound 320] | 0.62
346 (GACAGAACAACGGCGAACAG; chemistry not given here) [compound 346] | 0.79
362 (GCUGUCCCGGAGACCAUCCC; chemistry not given here) [compound 362] | 0.77

Same assay, conditions: 50 nM oligonucleotide, 72 hours, qPCR, relative to vehicle control

Substance | Percent DMPK Reduction
288 (CAGGGACAGCCGCUGGAACU; chemistry not given here) [compound 288] | 58.84%
293 (GAAUGUCCGACAGUGUCUCC; chemistry not given here) [compound 293] | 63.41%
294 (CGUUCCAUCUGCCCGCAGCU; chemistry not given here) [compound 294] | 68.72%
299 (GCAGGAUGUUGUCGGGUUUG; chemistry not given here) [compound 299] | 78.03%
301 (UGUUGUCGGGUUUGAUGUCC; chemistry not given here) [compound 301] | 42.19%
310 (GCGUAGAAGGGCGUCUGCCC; chemistry not given here) [compound 310] | 77.91%
313 (GGACGAUCUUGCCAUAGGUC; chemistry not given here) [compound 313] | 48.97%
316 (AGCAGGAUGUUGUCGGGUUU; chemistry not given here) [compound 316] | 74.02%
320 (CCCAGCGCCCACCAGUCACA; chemistry not given here) [compound 320] | 67.82%
346 (GACAGAACAACGGCGAACAG; chemistry not given here) [compound 346] | 70.49%
362 (GCUGUCCCGGAGACCAUCCC; chemistry not given here) [compound 362] | 66.27%

Same assay, conditions: 50 nM oligonucleotide, 72 hours, qPCR, relative to vehicle control = 1.00

Substance | Normalized DMPK Remaining
288 (CAGGGACAGCCGCUGGAACU; chemistry not given here) [compound 288] | 0.41
293 (GAAUGUCCGACAGUGUCUCC; chemistry not given here) [compound 293] | 0.37
294 (CGUUCCAUCUGCCCGCAGCU; chemistry not given here) [compound 294] | 0.31
299 (GCAGGAUGUUGUCGGGUUUG; chemistry not given here) [compound 299] | 0.22
301 (UGUUGUCGGGUUUGAUGUCC; chemistry not given here) [compound 301] | 0.58
310 (GCGUAGAAGGGCGUCUGCCC; chemistry not given here) [compound 310] | 0.22
313 (GGACGAUCUUGCCAUAGGUC; chemistry not given here) [compound 313] | 0.51
316 (AGCAGGAUGUUGUCGGGUUU; chemistry not given here) [compound 316] | 0.26
320 (CCCAGCGCCCACCAGUCACA; chemistry not given here) [compound 320] | 0.32
346 (GACAGAACAACGGCGAACAG; chemistry not given here) [compound 346] | 0.30
362 (GCUGUCCCGGAGACCAUCCC; chemistry not given here) [compound 362] | 0.34
